Data published in US4818749A, “Carboxyalkyl dipeptides and medical use thereof in treating hypertension and congestive heart failure” (Schering Corporation, priority 1981, dated 1989).

Biological target: T1, angiotensin converting enzyme (ACE) (Rattus norvegicus, UniProt P47820)
T1 construct: Drugs were injected intravenously; from tissue; host or cells: whole living animal (anesthetized Sprague-Dawley rat); no enzyme isolated
T1 sequence (P47820 36-1313): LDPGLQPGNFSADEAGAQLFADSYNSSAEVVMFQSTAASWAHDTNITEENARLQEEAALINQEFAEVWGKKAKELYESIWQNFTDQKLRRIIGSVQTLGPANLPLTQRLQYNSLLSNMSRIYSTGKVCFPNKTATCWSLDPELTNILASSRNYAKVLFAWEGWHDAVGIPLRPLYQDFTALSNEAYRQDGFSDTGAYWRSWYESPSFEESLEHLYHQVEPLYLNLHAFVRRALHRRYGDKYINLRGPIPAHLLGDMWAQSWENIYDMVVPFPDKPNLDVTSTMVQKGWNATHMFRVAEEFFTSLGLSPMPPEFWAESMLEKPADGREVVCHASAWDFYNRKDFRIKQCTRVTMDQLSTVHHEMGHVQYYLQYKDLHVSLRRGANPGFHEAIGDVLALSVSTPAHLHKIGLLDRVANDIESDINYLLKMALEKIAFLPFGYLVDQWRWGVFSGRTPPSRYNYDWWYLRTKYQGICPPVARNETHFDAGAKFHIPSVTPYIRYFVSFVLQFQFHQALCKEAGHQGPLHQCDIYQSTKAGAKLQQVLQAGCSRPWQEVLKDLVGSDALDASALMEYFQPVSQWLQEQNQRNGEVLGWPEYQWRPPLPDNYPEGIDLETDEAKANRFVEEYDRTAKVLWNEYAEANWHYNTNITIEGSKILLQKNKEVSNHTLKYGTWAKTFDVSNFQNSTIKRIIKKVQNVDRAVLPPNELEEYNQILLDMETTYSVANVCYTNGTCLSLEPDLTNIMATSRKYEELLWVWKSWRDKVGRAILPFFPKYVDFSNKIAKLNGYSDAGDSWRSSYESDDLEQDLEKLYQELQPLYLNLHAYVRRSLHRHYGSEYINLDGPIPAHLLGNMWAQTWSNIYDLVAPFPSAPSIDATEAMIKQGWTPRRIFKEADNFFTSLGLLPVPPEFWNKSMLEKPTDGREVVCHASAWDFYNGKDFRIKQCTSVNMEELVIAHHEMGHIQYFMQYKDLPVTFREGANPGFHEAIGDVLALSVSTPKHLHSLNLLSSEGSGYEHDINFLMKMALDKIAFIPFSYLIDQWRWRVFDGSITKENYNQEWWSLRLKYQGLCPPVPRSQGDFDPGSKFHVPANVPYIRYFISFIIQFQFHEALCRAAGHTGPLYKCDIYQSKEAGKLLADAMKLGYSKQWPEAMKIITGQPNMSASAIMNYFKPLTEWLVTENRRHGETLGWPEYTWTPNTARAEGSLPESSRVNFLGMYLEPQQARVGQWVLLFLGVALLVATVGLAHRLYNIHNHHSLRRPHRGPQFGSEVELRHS
Assay: ACE inhibition in anesthetized rats: inhibition of angiotensin I pressor response after iv test drug
Type: in vivo, Sprague-Dawley rats
Conditions: anesthetized Sprague-Dawley rats; drug iv; angiotensin I challenge 5 min after dosing; blood pressure response as percent of control; linear regression

Row | SMILES | ID50
1 | CCOC(=O)[C@H](CSCc1ccc(C)cc1)NC(C)C(=O)N1C2CCCCC2C[C@H]1C(=O)O (relative stereo) [4-methylbenzyl-thiomethyl, 1-[N-[1(R)-Ethoxycarbonyl-2-(4-methylbenzylthio)ethyl]-(R,S)-alanyl]-cis,syn-perhydroindole-2(S)-carboxylic acid] | 88 µg/kg
2 | CCOC(=O)[C@H](CSCc1ccccc1)NC(C)C(=O)N1C2CCCCC2C[C@H]1C(=O)O.Cl (relative stereo) [Compound 3, 1-[N-[1(R)-Ethoxycarbonyl-2-(benzylthio)ethyl]-(R,S)-alanyl]-cis,syn-perhydroindole-2(S)-carboxylic acid, hydrochloride] | 30 µg/kg
3 | CCOC(=O)[C@H](CSCc1ccccc1)N[C@@H](C)C(=O)N1[C@H](C(=O)O)C[C@@H]2CCCC[C@@H]21 (relative stereo) [Compound 4, 1-[N-[1(R)-EthoxYcarbonyl-2-(benzylthio)ethyl]-(S)-alanyl]-cis,syn-perhydroindole-2(S)-carboxylic acid] | 29 µg/kg
4 | Br.CCOC(=O)[C@H](CSCc1ccccc1)N[C@H](C)C(=O)N1[C@H](C(=O)O)C[C@@H]2CCCC[C@@H]21 (relative stereo) [Compound 5, 1-[N-[1(R)-Ethoxycarbonyl-2-(benzylthio)ethyl]-(R)-alanyl]-cis,syn-perhydroindole-2(S)-carboxylic acid, hydrobromide] | 350 µg/kg
5 | CCOC(=O)[C@H](CSCc1ccc2ccccc2c1)N[C@@H](C)C(=O)N1[C@H](C(=O)O)C[C@@H]2CCCC[C@@H]21.Cl (relative stereo) [Compound 6, 1-[N-[1(R)-Ethoxycarbonyl-2-(2-naphthylmethylthio)ethyl]-(S)-alanyl]-cis,syn-perhydroindole-2(S)-carboxylic acid hydrochloride] | > 100 µg/kg
6 | CCOC(=O)[C@H](CSCc1ccc2ccccc2c1)N[C@H](C)C(=O)N1C2CCCCC2C[C@H]1C(=O)O.Cl (relative stereo) [Compound 7, 1-[N-[1(R)-Ethoxycarbonyl-2-(2-naphthylmethylthio)ethyl]-(R)alanyl]-cis,syn-perhydroindole-2(S)-carboxylic acid hydrochloride] | > 1,000 μg/kg
7 | CCOC(=O)[C@H](CSCCc1ccccc1)N[C@@H](C)C(=O)N1C2CCCCC2C[C@H]1C(=O)O.Cl (relative stereo) [Compound 8, 1-[N-[1(R)-Ethoxycarbonyl-2-(phenylethylthio)ethyl]-(S)alanyl]-cis,syn-perhydroindole-2(S)-carboxylic acid hydrochloride] | 32 µg/kg
8 | CCOC(=O)[C@H](CSCCc1ccccc1)N[C@H](C)C(=O)N1[C@H](C(=O)O)C[C@@H]2CCCC[C@@H]21.Cl (relative stereo) [Compound 9, 1-[N-[1(R)-Ethoxycarbonyl-2-(phenylethylthio)ethyl]-(R)alanyl]-cis,syn-perhydroindole-2(S)-carboxylic acid hydrochloride] | > 1,000 μg/kg
9 | C[C@H](N[C@@H](CCc1ccc(C(=O)O)cc1)C(=O)O)C(=O)N1C2CCCCC2C[C@H]1C(=O)O (relative stereo) [Compound 10, 1-[N-[1(S)-Carboxy-3-(4-carboxyphenyl)propyl]-(S)-alanyl]-cis,syn-perhydroindole-2(S)-carboxylic acid] | 11 µg/kg
10 | CCOC(=O)[C@H](CSCc1ccccc1)NC(C)C(=O)N1CCC[C@H]1C(=O)O.Cl (stereo partly drawn) [Compound 1, N-(1(R)-Ethoxycarbonyl-2-benzylthioethyl)-(R,S)-alanyl-(S)-proline hydrochloride] | 66 µg/kg
11 | CCOC(=O)[C@H](COCc1ccccc1)NC(C)C(=O)N1CCC[C@H]1C(=O)O.Cl (stereo partly drawn) [Compound 2, N-(1(S)-Ethoxycarbonyl-2-benzyloxyethyl)-(R,S)-alanyl-(S)-proline hydrochloride] | 130 µg/kg
12 | C[C@H](N[C@@H](CCc1ccccc1)C(=O)O)C(=O)N1CCC[C@H]1C(=O)O [enalapril diacid, reference compound] | 15 ± 3 µg/kg

Same assay, conditions: rat, iv, 5 min, read-out: ID50

Row | SMILES | ED50
13 | CCOC(=O)[C@H](CCc1ccccc1)N[C@@H](C)C(=O)N1CCC[C@H]1C(=O)O [enalapril, reference compound] | 0.057 ± 0.007 mg/kg
